Experimental data taken from ChEMBL document CHEMBL1671662, “In vitro activities of telavancin and six comparator agents against anaerobic bacterial isolates” (2009).
Converted amounts (≈) assume the structure as drawn.

Columns and labels:
Eggerthella lenta = experiment: Antibacterial activity against Eggerthella lenta by CLSI M11-A6 agar dilution method; assay type: functional
[1] = system: Coprobacillus cateniformis; experiment: Antibacterial activity against Coprobacillus cateniformis by CLSI M11-A6 agar dilution method; assay type: functional
[2] = system: Clostridium celerecrescens; experiment: Antibacterial activity against Clostridium celerecrescens by CLSI M11-A6 agar dilution method; assay type: functional; conditions: Lacrimispora celerecrescens
[3] = system: Ruminococcus flavefaciens; experiment: Antibacterial activity against Ruminococcus flavefaciens by CLSI M11-A6 agar dilution method; assay type: functional
Clostridioides difficile = experiment: Antibacterial activity against Clostridium difficile by CLSI M11-A6 agar dilution method; assay type: functional
Bifidobacterium dentium = experiment: Antibacterial activity against Bifidobacterium dentium by CLSI M11-A6 agar dilution method; assay type: functional
[4] = system: Clostridium sporosphaeroides; experiment: Antibacterial activity against Clostridium sporosphaeroides by CLSI M11-A6 agar dilution method; assay type: functional; conditions: Faecalispora sporosphaeroides
Prevotella intermedia [5] = experiment: Antibacterial activity against Prevotella P intermedia by CLSI M11-A6 agar dilution method; assay type: functional
[6] = system: Paeniclostridium sordellii; experiment: Antibacterial activity against Clostridium sordellii by CLSI M11-A6 agar dilution method; assay type: functional; conditions: Paraclostridium sordellii
Coriobacterium = experiment: Antibacterial activity against […] by CLSI M11-A6 agar dilution method; assay type: functional
Bifidobacterium bifidum = experiment: Antibacterial activity against Bifidobacterium bifidum by CLSI M11-A6 agar dilution method; assay type: functional
Anaerococcus tetradius = experiment: Antibacterial activity against Anaerococcus tetradius by CLSI M11-A6 agar dilution method; assay type: functional
Blautia luti = experiment: Antibacterial activity against Ruminococcus luti by CLSI M11-A6 agar dilution method; assay type: functional
[7] = Antibacterial activity against Bifidobacterium infantis by CLSI M11-A6 agar dilution method; assay type: functional, Bifidobacterium longum subsp. infantis; conditions: Bifidobacterium longum
Prevotella intermedia [8] = experiment: Antibacterial activity against Prevotella intermedia by CLSI M11-A6 agar dilution method; assay type: functional
Blautia producta = experiment: Antibacterial activity against Ruminococcus productus by CLSI M11-A6 agar dilution method; assay type: functional
Prevotella oris = experiment: Antibacterial activity against Prevotella oris by CLSI M11-A6 agar dilution method; assay type: functional; conditions: Segatella oris
Bacteroides fragilis = experiment: Antibacterial activity against Bacteroides fragilis by CLSI M11-A6 agar dilution method; assay type: functional
Clostridium butyricum = experiment: Antibacterial activity against Clostridium butyricum by CLSI M11-A6 agar dilution method; assay type: functional
Clostridium bolteae = experiment: Antibacterial activity against Clostridium bolteae by CLSI M11-A6 agar dilution method; assay type: functional; conditions: Enterocloster bolteae
Anaerococcus prevotii = experiment: Antibacterial activity against Anaerococcus prevotii by CLSI M11-A6 agar dilution method; assay type: functional
Hoylesella loescheii = experiment: Antibacterial activity against Prevotella loescheii by CLSI M11-A6 agar dilution method; assay type: functional
Clostridium glycolicum = experiment: Antibacterial activity against Clostridium glycolicum by CLSI M11-A6 agar dilution method; assay type: functional; conditions: Terrisporobacter glycolicus
Clostridium sp. = experiment: Antibacterial activity against Clostridium sp. by CLSI M11-A6 agar dilution method; assay type: functional
Bifidobacterium breve = experiment: Antibacterial activity against Bifidobacterium breve by CLSI M11-A6 agar dilution method; assay type: functional
[9] = system: Prevotella melaninogenica; experiment: Antibacterial activity against Prevotella melaninogenica by CLSI M11-A6 agar dilution method; assay type: functional
Clostridium spiroforme = experiment: Antibacterial activity against Clostridium spiroforme by CLSI M11-A6 agar dilution method; assay type: functional; conditions: Thomasclavelia spiroformis
Holdemania filiformis = experiment: Antibacterial activity against Holdemania filiformis by CLSI M11-A6 agar dilution method; assay type: functional
Prevotella buccae = experiment: Antibacterial activity against Prevotella buccae by CLSI M11-A6 agar dilution method; assay type: functional; conditions: Segatella buccae
Clostridium = experiment: Antibacterial activity against Clostridium hypermegas by CLSI M11-A6 agar dilution method; assay type: functional
[10] = system: Paraclostridium bifermentans; experiment: Antibacterial activity against Clostridium bifermentans by CLSI M11-A6 agar dilution method; assay type: functional
Bacteroides ovatus = experiment: Antibacterial activity against Bacteroides ovatus by CLSI M11-A6 agar dilution method; assay type: functional
Clostridium leptum = experiment: Antibacterial activity against Clostridium leptum by CLSI M11-A6 agar dilution method; assay type: functional
Prevotella corporis = experiment: Antibacterial activity against Prevotella corporis by CLSI M11-A6 agar dilution method; assay type: functional
Clostridium disporicum = experiment: Antibacterial activity against Clostridium disporicum by CLSI M11-A6 agar dilution method; assay type: functional
Ruminococcus obeum = experiment: Antibacterial activity against Ruminococcus obeum by CLSI M11-A6 agar dilution method; assay type: functional; conditions: Blautia obeum
[Clostridium] innocuum = Antibacterial activity against Clostridium innocuum by CLSI M11-A6 agar dilution method; assay type: functional
[11] = system: Catenibacterium mitsuokai; experiment: Antibacterial activity against Catenibacterium mitsuokai by CLSI M11-A6 agar dilution method; assay type: functional
[12] = system: Peptostreptococcus anaerobius; experiment: Antibacterial activity against Peptostreptococcus anaerobius by CLSI M11-A6 agar dilution method; assay type: functional

## CCCCCCCCCC(=O)N[C@@H](Cc1c[nH]c2ccccc12)C(=O)N[C@H](CC(N)=O)C(=O)N[C@@H](CC(=O)O)C(=O)N[C@@H]1C(=O)NCC(=O)N[C@@H](CCCN)C(=O)N[C@@H](CC(=O)O)C(=O)N[C@H](C)C(=O)N[C@@H](CC(=O)O)C(=O)NCC(=O)N[C@H](CO)C(=O)N[C@@H]([C@H](C)CC(=O)O)C(=O)N[C@@H](CC(=O)c2ccccc2N)C(=O)O[C@@H]1C
Eggerthella lenta
  MIC50: 1 µg/mL (≈ 0.617 µM)
  MIC90: 32 µg/mL (≈ 19.7 µM)
[1]
  MIC50: 1 µg/mL (≈ 0.617 µM)
  MIC90: 32 µg/mL (≈ 19.7 µM)
[2]
  MIC50: 1 µg/mL (≈ 0.617 µM)
  MIC90: 8 µg/mL (≈ 4.94 µM)
[3]
  MIC50: 1 µg/mL (≈ 0.617 µM)
  MIC90: 2 µg/mL (≈ 1.23 µM)
Clostridioides difficile
  MIC50: 0.5 µg/mL (≈ 0.309 µM)
  MIC90: 1 µg/mL (≈ 0.617 µM)
Bifidobacterium dentium
  MIC50: 1 µg/mL (≈ 0.617 µM)
  MIC90: 32 µg/mL (≈ 19.7 µM)
[4]
  MIC50: 1 µg/mL (≈ 0.617 µM)
  MIC90: 8 µg/mL (≈ 4.94 µM)
Prevotella intermedia [5]
  MIC: > 128 µg/mL
  MIC50: > 128 µg/mL
  MIC90: > 128 µg/mL
[6]
  MIC50: 1 µg/mL (≈ 0.617 µM)
  MIC90: 8 µg/mL (≈ 4.94 µM)
Coriobacterium
  MIC50: 1 µg/mL (≈ 0.617 µM)
  MIC90: 32 µg/mL (≈ 19.7 µM)
Bifidobacterium bifidum
  MIC50: 1 µg/mL (≈ 0.617 µM)
  MIC90: 32 µg/mL (≈ 19.7 µM)
Anaerococcus tetradius
  MIC50: 1 µg/mL (≈ 0.617 µM)
  MIC90: 4 µg/mL (≈ 2.47 µM)
Blautia luti
  MIC50: 1 µg/mL (≈ 0.617 µM)
  MIC90: 2 µg/mL (≈ 1.23 µM)
[7]
  MIC50: 1 µg/mL (≈ 0.617 µM)
  MIC90: 32 µg/mL (≈ 19.7 µM)
Prevotella intermedia [8]
  MIC: > 128 µg/mL
  MIC50: > 128 µg/mL
  MIC90: > 128 µg/mL
Blautia producta
  MIC50: 1 µg/mL (≈ 0.617 µM)
  MIC90: 2 µg/mL (≈ 1.23 µM)
Prevotella oris
  MIC: > 128 µg/mL
  MIC50: > 128 µg/mL
  MIC90: > 128 µg/mL
Bacteroides fragilis
  MIC: > 128 µg/mL
  MIC50: > 128 µg/mL
  MIC90: > 128 µg/mL
Clostridium butyricum
  MIC50: 1 µg/mL (≈ 0.617 µM)
  MIC90: 8 µg/mL (≈ 4.94 µM)
Clostridium bolteae
  MIC50: 4 µg/mL (≈ 2.47 µM)
  MIC90: 4 µg/mL (≈ 2.47 µM)
Anaerococcus prevotii
  MIC50: 1 µg/mL (≈ 0.617 µM)
  MIC90: 4 µg/mL (≈ 2.47 µM)
Hoylesella loescheii
  MIC: > 128 µg/mL
  MIC50: > 128 µg/mL
  MIC90: > 128 µg/mL
Clostridium glycolicum
  MIC50: 1 µg/mL (≈ 0.617 µM)
  MIC90: 8 µg/mL (≈ 4.94 µM)
Clostridium sp.
  MIC50: 1 µg/mL (≈ 0.617 µM)
  MIC90: 8 µg/mL (≈ 4.94 µM)
Bifidobacterium breve
  MIC50: 1 µg/mL (≈ 0.617 µM)
  MIC90: 32 µg/mL (≈ 19.7 µM)
[9]
  MIC: > 128 µg/mL
  MIC50: > 128 µg/mL
  MIC90: > 128 µg/mL
Clostridium spiroforme
  MIC50: 1 µg/mL (≈ 0.617 µM)
  MIC90: 8 µg/mL (≈ 4.94 µM)
Holdemania filiformis
  MIC50: 1 µg/mL (≈ 0.617 µM)
  MIC90: 32 µg/mL (≈ 19.7 µM)
Prevotella buccae
  MIC: > 128 µg/mL
  MIC50: > 128 µg/mL
  MIC90: > 128 µg/mL
Clostridium
  MIC50: 1 µg/mL (≈ 0.617 µM)
  MIC90: 8 µg/mL (≈ 4.94 µM)
[10]
  MIC50: 1 µg/mL (≈ 0.617 µM)
  MIC90: 8 µg/mL (≈ 4.94 µM)
Bacteroides ovatus
  MIC: > 128 µg/mL
  MIC50: > 128 µg/mL
  MIC90: > 128 µg/mL
Clostridium leptum
  MIC50: 1 µg/mL (≈ 0.617 µM)
  MIC90: 8 µg/mL (≈ 4.94 µM)
Prevotella corporis
  MIC: > 128 µg/mL
  MIC50: > 128 µg/mL
  MIC90: > 128 µg/mL
Clostridium disporicum
  MIC50: 1 µg/mL (≈ 0.617 µM)
  MIC90: 8 µg/mL (≈ 4.94 µM)
Ruminococcus obeum
  MIC50: 0.5 µg/mL (≈ 0.309 µM)
  MIC90: 0.5 µg/mL (≈ 0.309 µM)
[Clostridium] innocuum
  MIC50: 8 µg/mL (≈ 4.94 µM)
  MIC90: 16 µg/mL (≈ 9.87 µM)
[11]
  MIC50: 1 µg/mL (≈ 0.617 µM)
  MIC90: 32 µg/mL (≈ 19.7 µM)
[12]
  MIC50: 1 µg/mL (≈ 0.617 µM)
  MIC90: 4 µg/mL (≈ 2.47 µM)
